Laboratory results: patent publication US4425356A, “Lankacidin derivatives used in swine husbandry” (Takeda Chemical Industries, Ltd., priority 1980, dated 1984)
“And” between values parts separate entries of the source, which are not always exact repeats. Identical values can stand only once. “Also recorded” adds a separate entry of the source. Like-named read-outs stand apart in the source and are kept apart here.

What was measured:
[1] = test system: Treponema hyodysenteriae 78/A strain; assay: therapeutic administration in pigs showing clinical signs of swine dysentery, Test Examples 8-9; type: in vivo; conditions: for No. of pathogen (in feces) / Condition of feces: individual pig
Experimental: This test was conducted under the conditions of so-called therapeutic administration. […] The method of infection was the same as in Test Example 5. […] Simultaneously with showing of the signs, the pigs were provided with a feed containing 50 ppm of lankacidin C. […] After 2 days, the viable count for the pathogen in feces was below the detection limit (10^2 CFU/g).
The condition of feces was rated at one of the following four classes:
.circle. normal; loose; diarrheal; .circleincircle. mucous and bloody
count is below the detection limit (10^2 CFU/g).
The symbol * indicates those days on which the feed containing 50 ppm of
lankacidin C was given.
Lankacidins were tested for therapeutic effects in swine dysentery under therapeutic conditions in the same manner as in Test Example 8. The effects were judged based on the condition of feces.
The condition of feces was rated at one of the following four classes;
The symbol * indicates the days on which the feed containing 50 ppm of th

[2] = test system: Treponema hyodysenteriae 78/A strain; assay: efficacy against swine dysentery under experimental infection conditions in pigs (drug in feed), Test Examples 5-7; type: in vivo, Landrace pigs; conditions: for Number of days on which diarrhea was observed / Number of days on which mucous bloody stool was observed / Number of pigs showing signs of infection/number of pigs used: 21-day test period; for Body weight gain / Feed conversion / Feed intake: 21 day period; for Body weight gain / Feed conversion / Feed intake / Body weight at the time of completion of test: mean per head
Experimental: Lankacidin C was tested for efficacy against swine dysentery under experimental infection conditions. Thus, twelve 6-week-old Landrace pigs (4 per group) were used. The test drug was admixed to a concentration of 100 ppm with the domestically formulated starter feed for young pigs without antibiotics. The animals were provided with the ration ad libitum. Infection of the pigs was effected by direct intragastrical administration to the SPF pigs of an inoculum prepared by preliminary anaerobic cultivation of the Treponema hyodysenteriae 78/A strain on a 5% horse blood added agar plate, mashing together with the culture medium and admixing with 5% mucin added phosphate buffer. Colonic contents and mucosa were collected from pigs which developed typical signs of swine dysentery, and diluted two-fold with 5% mucin added phosphate buffer. The dilution was used as the final inoculum, and 100 ml of the dilution was directly injected into the stomach of test pigs at the age of 7 weeks (fasted for 24 hours before infection). The pigs were fed for 21 days following infection.
The data are each the mean value per head for the 21day period from
infection to autopsy. Different alphabetic letters on the same line
indicate that there is a significant difference between the data to which
they are attached (P <0.05).
Lankacidin C was tested at concentrations in feed of 100 ppm and lower by the same method as in Test Example 5, with carbadox, a commonly used anti-swine-dysentery agent, for comparison.
The anti-swine-dysentery effects of 10 ppm each of lankacidin A and lankacidin C 14-propionate were examined by the procedure of Test Example 6.

[3] = acute toxicity tests with mice; conditions: mouse, in vivo
Excerpt: The toxicity of compound (I) in animals is very low.

[4] = growth of pigs, 5-month continuous dietary administration, Test Examples 10-11; type: in vivo, Landrace pigs; conditions: for Body weight at end / Body weight at feed exchange / Body weight gain for starter feed period / Body weight gain for whole period / Feed conversion for starter feed period / Feed conversion for whole period / Feed intake for starter feed period / Feed intake for whole period: mean per head
Experimental: Effects of compound (I) on the growth of pigs under the conditions in which swine dysentery was absent were examined. Thus, 40 one-month-old Landrace pigs (5 litters) were used in groups each consisting of 8 (4 males and 4 females). Lankacidin C was added in concentrations of 0 (control), 1, 2.5, 5 and 10 ppm to antibacterial agent-free starter feed for the period from the start of the test through the age of 3 months and to the feed for testing pigs for performance of meat production (also free of antibacterial agents) for the period from the age of 4 months to the age of 6 months (end). Thus, in each group, dietary lankacidin C was administered continuously for 5 months.
The data are each the mean value per head. Different alphabetic letters o
Fourty-eight 35-day-old Landrace pigs (6 litters) were used in 6 groups each consisting of 8 (4 males and 4 females). Lankacidin A was added in concentrations of 0 (control), 1, 2.5, 5, 10 and 20 ppm to antibacterial agent-free starter feed for the period from the start of the test through the age of 3 months and to the feed for testing pigs for performance of meat production (also free of antibacterial agents) for the period from the age of 4 months to the age of 6 months (end).

[5] = 50 ppm in feed, autopsy 15 days after manifestation of signs

CC(=O)C(=O)NC1C=C(C)C=CC(O)CC=C(C)C=CC(O)CC2OC(=O)C1(C)C(=O)C2C (stereo not drawn) [Lankacidin C, lankacidin C]
therapeutic effect in swine dysentery (in words) ([1]; 50 ppm in feed): therapeutically effective | viable count for the pathogen in feces ([1]; 50 ppm in feed, after 2 days): < 10^2 CFU/g | colonic lesions (autopsy) [1, 5]: negative | pathogen at autopsy (in words) [1, 5]: without the pathogen being detected | colonic lesions (autopsy) ([1]; 50 ppm in feed, autopsy 15 days after manifestation of signs, listed as lankacidin C): no colonic lesions | No. of pathogen (in feces) ([1]; 50 ppm in feed, day 0): 8.0 log/g and 6.0 log/g and 7.1 log/g and 6.8 log/g | No. of pathogen (in feces) ([1]; 50 ppm in feed, day 1): 4.3 log/g and 2.3 log/g and 4.4 log/g and 2.0 log/g | mucous bloody diarrhea / passage (in words) ([1]; 50 ppm in feed, day following the administration): mucous bloody diarrhea was no more observed on the day following the administration but the passage was loose or normal | Condition of feces ([1]; Table 8, 50 ppm in feed days 0-6, day 7): .circle. | Condition of feces ([1]; Table 8, 50 ppm in feed days 0-6, day 8): .circle. | Condition of feces ([1]; Table 8, 50 ppm in feed days 0-6, day 9): .circle. | Condition of feces ([1]; Table 8, 50 ppm in feed days 0-6, day 10): .circle. | Condition of feces ([1]; Table 8, 50 ppm in feed days 0-6, day 11): .circle. | Condition of feces ([1]; Table 8, 50 ppm in feed days 0-6, day 12): .circle. | Condition of feces ([1]; Table 8, 50 ppm in feed days 0-6, day 13): .circle. | Condition of feces ([1]; Table 8, 50 ppm in feed days 0-6, day 14): .circle. | Condition of feces ([1]; Table 8, 50 ppm in feed days 0-6, day 15): .circle. | Condition of feces ([1]; Table 8, 50 ppm in feed, day 0 after manifestation of signs): .circleincircle. | Condition of feces ([1]; Table 8, 50 ppm in feed, day 1): .circle. | Condition of feces ([1]; Table 8, 50 ppm in feed, day 2): .circle. | Condition of feces ([1]; Table 8, 50 ppm in feed, day 3): .circle. | Condition of feces ([1]; Table 8, 50 ppm in feed, day 4): .circle. | Condition of feces ([1]; Table 8, 50 ppm in feed, day 5): .circle. | Condition of feces ([1]; Table 8, 50 ppm in feed, day 6): .circle. | Condition of feces ([1]; Table 9, 50 ppm in feed, day 0 after manifestation of signs): .circleincircle. | Condition of feces ([1]; Table 9, 50 ppm in feed, day 1): .circle. | Condition of feces ([1]; Table 9, 50 ppm in feed, day 2): .circle. | Condition of feces ([1]; Table 9, 50 ppm in feed, day 3): .circle. | Condition of feces ([1]; Table 9, 50 ppm in feed, day 4): .circle. | Condition of feces ([1]; Table 9, 50 ppm in feed, day 5): .circle. | Number of pigs from which the pathogen was detected, in colonic mucosa ([2]; 10 ppm in feed): 0 | Number of pigs from which the pathogen was detected, in feces ([2]; 10 ppm in feed): 0 | Number of pigs showing colonic lesions ([2]; 10 ppm in feed): 0 | Number of days on which diarrhea was observed ([2]; 10 ppm in feed): 0 days | Number of days on which mucous bloody stool was observed ([2]; 10 ppm in feed): 0 days | Number of pigs showing signs of infection/number of pigs used ([2]; 10 ppm in feed): 0/4 | Body weight gain ([2]; 10 ppm in feed): 484 grams/day | Feed conversion ([2]; 10 ppm in feed): 1.81 | Feed intake ([2]; 10 ppm in feed): 18.4 kg | Body weight at the time of completion of test ([2]; 10 ppm in feed): 20.7 kg | Number of pigs from which the pathogen was detected, in colonic mucosa ([2]; 50 ppm in feed): 0 | Number of pigs from which the pathogen was detected, in feces ([2]; 50 ppm in feed): 0 | Number of pigs showing colonic lesions ([2]; 50 ppm in feed): 0 | Number of days on which diarrhea was observed ([2]; 50 ppm in feed): 0 days | Number of days on which mucous bloody stool was observed ([2]; 50 ppm in feed): 0 days | Number of pigs showing signs of infection/number of pigs used ([2]; 50 ppm in feed): 0/4 | Body weight gain ([2]; 50 ppm in feed): 673 grams/day | Feed conversion ([2]; 50 ppm in feed): 1.79 | Feed intake ([2]; 50 ppm in feed): 25.3 kg | Body weight at the time of completion of test ([2]; 50 ppm in feed): 25.3 kg | Number of pigs from which the pathogen was detected, in colonic mucosa ([2]; 100 ppm in feed): 0 | Number of pigs from which the pathogen was detected, in feces ([2]; 100 ppm in feed): 0 | Number of pigs showing colonic lesions ([2]; 100 ppm in feed): 0 | Number of days on which diarrhea was observed ([2]; 100 ppm in feed): 0 days | Number of days on which mucous bloody stool was observed ([2]; 100 ppm in feed): 0 days | Number of pigs showing signs of infection/number of pigs used ([2]; 100 ppm in feed): 0/4 | Body weight gain ([2]; 100 ppm in feed): 708 grams/day and 689 grams/day | Feed conversion ([2]; 100 ppm in feed): 1.85 and 1.77 | Feed intake ([2]; 100 ppm in feed): 27.5 kg and 25.6 kg | Body weight at the time of completion of test ([2]; 100 ppm in feed): 28.5 kg and 25.5 kg | effect against swine dysentery (in words) ([2]; pig, in vivo): excellent effect against swine dysentery; also recorded: more excellent anti-swine-dysentery agent than carbadox | LD50 ([3]; ip, intraperitoneal, read-out: intraperitoneal LD50): 4500 mg/kg | LD50 ([3]; oral, read-out: oral LD50): > 10000 mg/kg | Body weight at end ([4]; 1 ppm in feed): 102.4 kg | Body weight at feed exchange ([4]; 1 ppm in feed): 32.7 kg | Body weight gain for starter feed period ([4]; 1 ppm in feed): 25.4 kg | Body weight gain for whole period ([4]; 1 ppm in feed): 95.0 kg | Feed conversion for starter feed period ([4]; 1 ppm in feed): 1.95 | Feed conversion for whole period ([4]; 1 ppm in feed): 2.90 | Feed intake for starter feed period ([4]; 1 ppm in feed): 49.4 kg | Feed intake for whole period ([4]; 1 ppm in feed): 275.6 kg | Body weight at end ([4]; 2.5 ppm in feed): 104.6 kg | Body weight at feed exchange ([4]; 2.5 ppm in feed): 34.2 kg | Body weight gain for starter feed period ([4]; 2.5 ppm in feed): 26.9 kg | Body weight gain for whole period ([4]; 2.5 ppm in feed): 97.2 kg | Feed conversion for starter feed period ([4]; 2.5 ppm in feed): 1.83 | Feed conversion for whole period ([4]; 2.5 ppm in feed): 2.86 | Feed intake for starter feed period ([4]; 2.5 ppm in feed): 49.1 kg | Feed intake for whole period ([4]; 2.5 ppm in feed): 278.0 kg | Body weight at end ([4]; 5 ppm in feed): 109.0 kg | Body weight at feed exchange ([4]; 5 ppm in feed): 36.9 kg | Body weight gain for starter feed period ([4]; 5 ppm in feed): 29.5 kg | Body weight gain for whole period ([4]; 5 ppm in feed): 101.7 kg | Feed conversion for starter feed period ([4]; 5 ppm in feed): 1.72 | Feed conversion for whole period ([4]; 5 ppm in feed): 2.80 | Feed intake for starter feed period ([4]; 5 ppm in feed): 50.7 kg | Feed intake for whole period ([4]; 5 ppm in feed): 284.6 kg | Body weight at end ([4]; 10 ppm in feed): 110.2 kg | Body weight at feed exchange ([4]; 10 ppm in feed): 37.5 kg | Body weight gain for starter feed period ([4]; 10 ppm in feed): 30.1 kg | Body weight gain for whole period ([4]; 10 ppm in feed): 102.8 kg | Feed conversion for starter feed period ([4]; 10 ppm in feed): 1.70 | Feed conversion for whole period ([4]; 10 ppm in feed): 2.77 | Feed intake for starter feed period ([4]; 10 ppm in feed): 51.2 kg | Feed intake for whole period ([4]; 10 ppm in feed): 284.8 kg | growth and feed efficiency (in words) ([4]; dietary, 5 months): growth of pigs was increased in a manner almost proportional to the level of addition of lankacidin C, and accordingly the feed efficiency was improved
